Data reported in ChEMBL document CHEMBL5113392, “Novel hybrid pyrrolidinedione-thiazolidinones as potential anticancer agents: Synthesis and biological evaluation” (Eur J Med Chem, 2022).
Activity calls are given as the source filed them. The calls are words filed in the database; no cut-off is given here.

Tests used:
K562 [1] = test: Anticancer activity against human K562 cells assessed as growth inhibition incubated for 48 hrs by SRB assay; format: functional
HOP-62 = test: Anticancer activity against human HOP-62 cells assessed as growth inhibition incubated for 48 hrs by SRB assay; format: functional
CCRF-CEM = test: Anticancer activity against human CCRF-CEM cells assessed as total growth inhibition incubated for 48 hrs by SRB assay; format: functional
HOP-92 = test: Anticancer activity against human HOP-92 cells assessed as growth inhibition incubated for 48 hrs by SRB assay; format: functional
NCI-H23 = test: Anticancer activity against human NCI-H23 cells assessed as growth inhibition incubated for 48 hrs by SRB assay; format: functional
NCI-H460 = test: Anticancer activity against human NCI-H460 cells assessed as growth inhibition incubated for 48 hrs by SRB assay; format: functional
HCT-15 [2] = test: Anticancer activity against human HCT-15 cells assessed as growth inhibition incubated for 48 hrs by SRB assay; format: functional
SNB-19 = test: Anticancer activity against human SNB-19 cells assessed as growth inhibition incubated for 48 hrs by SRB assay; format: functional
MDA-MB-435 = test: Anticancer activity against human MDA-MB-435 cells assessed as growth inhibition incubated for 48 hrs by SRB assay; format: functional
SK-MEL-2 = test: Anticancer activity against human SK-MEL-2 cells assessed as growth inhibition incubated for 48 hrs by SRB assay; format: functional
UACC-257 [3] = test: Anticancer activity against human UACC-257 cells assessed as growth inhibition incubated for 48 hrs by SRB assay; format: functional
UACC-62 [4] = test: Anticancer activity against human UACC-62 cells assessed as growth inhibition incubated for 48 hrs by SRB assay; format: functional
IGROV-1 = test: Anticancer activity against human IGROV-1 cells assessed as growth inhibition incubated for 48 hrs by SRB assay; format: functional
SK-OV-3 [5] = test: Anticancer activity against human SK-OV-3 cells assessed as growth inhibition incubated for 48 hrs by SRB assay; format: functional
RXF 393 = test: Anticancer activity against human RXF 393 cells assessed as growth inhibition incubated for 48 hrs by SRB assay; format: functional
DU-145 = test: Anticancer activity against human DU-145 cells assessed as growth inhibition incubated for 48 hrs by SRB assay; format: functional
MCF7 [6] = test: Anticancer activity against human MCF7 cells assessed as growth inhibition incubated for 48 hrs by SRB assay; format: functional
T47D = test: Anticancer activity against human T47D cells assessed as growth inhibition incubated for 48 hrs by SRB assay; format: functional
[7] = Selectivity index, ratio of GI50 for human HaCaT cells to GI50 for human U-251 cells; format: toxicity; settings: HaCaT cells versus U-251 cells, read-out: RatioGI50
HL-60 = test: Anticancer activity against human HL-60 cells assessed as total growth inhibition incubated for 48 hrs by SRB assay; format: functional
K562 [8] = test: Anticancer activity against human K562 cells assessed as total growth inhibition incubated for 48 hrs by SRB assay; format: functional
MOLT-4 [9] = test: Anticancer activity against human MOLT-4 cells assessed as total growth inhibition incubated for 48 hrs by SRB assay; format: functional
RPMI-8226 = test: Anticancer activity against human RPMI-8226 cells assessed as total growth inhibition incubated for 48 hrs by SRB assay; format: functional
SF-539 = test: Anticancer activity against human SF-539 cells assessed as total growth inhibition incubated for 48 hrs by SRB assay; format: functional
U-251 [10] = test: Anticancer activity against human U-251 cells assessed as total growth inhibition incubated for 48 hrs by SRB assay; format: functional
UACC-257 [11] = test: Anticancer activity against human UACC-257 cells assessed as total growth inhibition incubated for 48 hrs by SRB assay; format: functional
OVCAR-3 = test: Anticancer activity against human OVCAR-3 cells assessed as total growth inhibition incubated for 48 hrs by SRB assay; format: functional
OVCAR-4 = test: Anticancer activity against human OVCAR-4 cells assessed as total growth inhibition incubated for 48 hrs by SRB assay; format: functional
OVCAR-8 = test: Anticancer activity against human OVCAR-8 cells assessed as total growth inhibition incubated for 48 hrs by SRB assay; format: functional
CAKI-1 = test: Anticancer activity against human CAKI-1 cells assessed as total growth inhibition incubated for 48 hrs by SRB assay; format: functional
UO-31 = test: Anticancer activity against human UO-31 cells assessed as total growth inhibition incubated for 48 hrs by SRB assay; format: functional
MCF7 [12] = test: Anticancer activity against human MCF7 cells assessed as total growth inhibition incubated for 48 hrs by SRB assay; format: functional
MOLT-4 [13] = test: Anticancer activity against human MOLT-4 cells assessed as lethality incubated for 48 hrs by SRB assay; format: functional; settings: read-out: LC50 (the source's name)
EKVX = test: Anticancer activity against human EKVX cells assessed as lethality incubated for 48 hrs by SRB assay; format: functional; settings: read-out: LC50 (the source's name)
NCI-H522 = test: Anticancer activity against human NCI-H522 cells assessed as lethality incubated for 48 hrs by SRB assay; format: functional; settings: read-out: LC50 (the source's name)
HCT-15 [14] = test: Anticancer activity against human HCT-15 cells assessed as lethality incubated for 48 hrs by SRB assay; format: functional; settings: read-out: LC50 (the source's name)
M14 = test: Anticancer activity against human M14 cells assessed as lethality incubated for 48 hrs by SRB assay; format: functional; settings: read-out: LC50 (the source's name)
UACC-62 [15] = test: Anticancer activity against human UACC-62 cells assessed as lethality incubated for 48 hrs by SRB assay; format: functional; settings: read-out: LC50 (the source's name)
NCI/ADR-RES = test: Anticancer activity against human NCI/ADR-RES cells assessed as lethality incubated for 48 hrs by SRB assay; format: functional; settings: read-out: LC50 (the source's name)
SK-OV-3 [16] = test: Anticancer activity against human SK-OV-3 cells assessed as lethality incubated for 48 hrs by SRB assay; format: functional; settings: read-out: LC50 (the source's name)
MCF7 [17] = test: Anticancer activity against human MCF7 cells assessed as lethality incubated for 48 hrs by SRB assay; format: functional; settings: read-out: LC50 (the source's name)
MDA-MB-231 = test: Anticancer activity against human MDA-MB-231 cells assessed as lethality incubated for 48 hrs by SRB assay; format: functional; settings: read-out: LC50 (the source's name)
Hs-578T = test: Anticancer activity against human Hs-578T cells assessed as lethality incubated for 48 hrs by SRB assay; format: functional; settings: read-out: LC50 (the source's name)
BT-549 = test: Anticancer activity against human BT-549 cells assessed as lethality incubated for 48 hrs by SRB assay; format: functional; settings: read-out: LC50 (the source's name)
KB 3-1 = test: Anticancer activity against human KB 3-1 cells assessed as cell growth inhibition incubated for 72 hrs by MTT assay; format: functional
U-251 [18] = test: Anticancer activity against human U-251 cells assessed as cell growth inhibition incubated for 72 hrs by MTT assay; format: functional
[19] = Cytotoxicity against human HaCaT cells assessed as cell growth inhibition incubated for 72 hrs by MTT assay; format: toxicity, cell-based
[20] = Selectivity index, ratio of GI50 for human HaCaT cells to GI50 for human Jurkat cells; format: toxicity; settings: HaCaT cells versus Jurkat cells, read-out: RatioGI50
[21] = Selectivity index, ratio of GI50 for human HaCaT cells to GI50 for human MDA-MB-231 cells; format: toxicity; settings: HaCaT cells versus MDA-MB-231 cells, read-out: RatioGI50
Jurkat = test: Induction of morphological changes in human Jurkat cells assessed as change in cell shape incubated for 24 hrs by Hoechst 33258 and propidium iodide staining based fluorescence microscopy; format: functional

O=C1CC(N2C(=O)/C(=C/C(Cl)=C/c3ccc([N+](=O)[O-])cc3)SC2=S)C(=O)N1c1ccc(Cl)cc1 (stereo not given)
GI50 (K562 [1]): 0.692 µM
GI50 (HOP-62): 1.73 µM
TGI (CCRF-CEM): 12.4 µM
GI50 (HOP-92): 2.58 µM
GI50 (NCI-H23): 1.64 µM
GI50 (NCI-H460): 3.3 µM
GI50 (HCT-15 [2]): 0.599 µM
GI50 (SNB-19): 1.17 µM
GI50 (MDA-MB-435): 1.65 µM
GI50 (SK-MEL-2): 3.12 µM
GI50 (UACC-257 [3]): 2.92 µM
GI50 (UACC-62 [4]): 1.77 µM
GI50 (IGROV-1): 1.03 µM
GI50 (SK-OV-3 [5]): 3.56 µM
GI50 (RXF 393): 1.26 µM
GI50 (DU-145): 2.09 µM
GI50 (MCF7 [6]): 1.38 µM
GI50 (T47D): 2.03 µM
selectivity ratio [7]: 11.2
TGI (HL-60): 8.86 µM
TGI (K562 [8]): 11.6 µM
TGI (MOLT-4 [9]): 13.4 µM
TGI (RPMI-8226): 0.979 µM
TGI (SF-539): 4.14 µM
TGI (U-251 [10]): 2.47 µM
TGI (UACC-257 [11]): 66.5 µM
TGI (OVCAR-3): 2.62 µM
TGI (OVCAR-4): > 100 µM
TGI (OVCAR-8): > 100 µM
TGI (CAKI-1): 3.28 µM
TGI (UO-31): 3.3 µM
TGI (MCF7 [12]): > 100 µM
CC50 (MOLT-4 [13]): 62.6 µM
CC50 (EKVX): > 100 µM
CC50 (NCI-H522): 14.1 µM
CC50 (HCT-15 [14]): 77.4 µM
CC50 (M14): > 100 µM
CC50 (UACC-62 [15]): 12 µM
CC50 (NCI/ADR-RES): > 100 µM
CC50 (SK-OV-3 [16]): > 100 µM
CC50 (MCF7 [17]): > 100 µM
CC50 (MDA-MB-231): > 100 µM
CC50 (Hs-578T): > 100 µM
CC50 (BT-549): 8 µM
GI50 (KB 3-1): 70.3 µM
GI50 (U-251 [18]): 8.93 µM
GI50 at 72 h [19]: > 100 µM
selectivity ratio [20]: 29.4
selectivity ratio [21]: 15.5
Activity (Jurkat): Active

O=C1CC(N2C(=O)/C(=C/C(Cl)=C/c3ccc([N+](=O)[O-])cc3)SC2=S)C(=O)N1c1ccc(O)cc1 (stereo not given)
GI50 (K562 [1]): 0.603 µM
GI50 (HOP-62): 2.26 µM
TGI (CCRF-CEM): 3.87 µM
GI50 (HOP-92): 1.62 µM
GI50 (NCI-H23): 1.56 µM
GI50 (NCI-H460): 2.55 µM
GI50 (HCT-15 [2]): 0.472 µM
GI50 (SNB-19): 1.34 µM
GI50 (MDA-MB-435): 2.01 µM
GI50 (SK-MEL-2): 2.74 µM
GI50 (UACC-257 [3]): 2.48 µM
GI50 (UACC-62 [4]): 1.67 µM
GI50 (IGROV-1): 1.2 µM
GI50 (SK-OV-3 [5]): 2.99 µM
GI50 (RXF 393): 1.53 µM
GI50 (DU-145): 1.72 µM
GI50 (MCF7 [6]): 1.21 µM
GI50 (T47D): 2.45 µM
selectivity ratio [7]: 66.9
TGI (HL-60): 9.57 µM
TGI (K562 [8]): 9.55 µM
TGI (MOLT-4 [9]): 15.3 µM
TGI (RPMI-8226): 4.36 µM
TGI (SF-539): 3.81 µM
TGI (U-251 [10]): 2.21 µM
TGI (UACC-257 [11]): 9.12 µM
TGI (OVCAR-3): 1.96 µM
TGI (OVCAR-4): 17.3 µM
TGI (OVCAR-8): 14.2 µM
TGI (CAKI-1): 2.42 µM
TGI (UO-31): 2.79 µM
TGI (MCF7 [12]): 10.7 µM
CC50 (MOLT-4 [13]): > 100 µM
CC50 (EKVX): 35.3 µM
CC50 (NCI-H522): 9.65 µM
CC50 (HCT-15 [14]): 6.09 µM
CC50 (M14): 7.51 µM
CC50 (UACC-62 [15]): 6.86 µM
CC50 (NCI/ADR-RES): > 100 µM
CC50 (SK-OV-3 [16]): 32 µM
CC50 (MCF7 [17]): > 100 µM
CC50 (MDA-MB-231): 15.9 µM
CC50 (Hs-578T): > 100 µM
CC50 (BT-549): 8.72 µM
GI50 (KB 3-1): 8 µM
GI50 (U-251 [18]): 1.1 µM
GI50 at 72 h [19]: 73.6 µM
selectivity ratio [20]: 56.6
selectivity ratio [21]: 11.9
Activity (Jurkat): Active
